The numbers were not newly measured in US20060147526A1, “Pharmaceutical formulations comprising ß-2 adrenoreceptor agonists and xanthines” (CIPLA LIMTED, priority 2002, published 2006), which cites them from elsewhere.

The conditions of series [1]: inhalation.
For series [2] the following is noted: in vivo.

For the molecule `OCc1cc(C(O)CNCCCCCCOCCCCc2ccccc2)ccc1O` (centres unmarked) [salmeterol], the persistent bronchodilation lasting entry in series [1] is “over 12 hours”.

For `CN(C)C(=O)Oc1cc(OC(=O)N(C)C)cc(C(O)CNC(C)(C)C)c1` (centres unmarked) [bambuterol, 5-[2-(tert-butylamino)-1-hydroxyethyl]-m-phenylene-bis(dimethylcarbamate)], the duration of action in series [2] was 24 h.
